Measurements published in the C3SDB collision cross section collection.
Where “and” joins values, the source holds several entries; their conditions need not be identical. Equal entries are not always repeated.

Details: [M-H]-; instrument: DT; stepped-field

Row | collision cross section (N2) | SMILES
1 | 266.7 Å² | CCCCCCCC/C=C\CCCCCCCCCC(=O)O[C@H](COC(=O)CCCCCCCCCCCC)COP(=O)(O)OCCN [PE(33:1)]
2 | 284.6 Å² | CCCCCCCC/C=C\CCCCCCCCCC(=O)O[C@H](COC(=O)CCCCCCCCCCC)COP(=O)(O)O[C@H]1C(O)C(O)C(O)[C@@H](O)C1O (some centres not stated) [PI(16:0/16:1)]
3 | 295.9 Å² and 296.2 Å² | CCCC/C=C\CCCCCCCC(=O)OC[C@H](COP(=O)(O)O[C@H]1C(O)C(O)C(O)[C@@H](O)C1O)OC(=O)CCCCCCCCC/C=C\CCCCCCCCCC (some centres not stated) [PI(18:1/18:1)]

Details: [M+H]+; instrument: DT; stepped-field

Row | collision cross section (N2) [Å²] | SMILES
4 | 165.02 | Nc1nc(=O)c2ncn([C@@H]3O[C@H](CO)[C@@H](O)[C@H]3O)c2[nH]1 [Guanosine]
5 | 138.11 | O=c1[nH]c(=O)c2[nH]cnc2[nH]1 [Xanthine]
6 | 127.9 | Nc1ncnc2nc[nH]c12 [Adenine]
7 | 130.53 | N[C@@H](CCS)C(=O)O [Homocysteine]
8 | 156.97 | Nc1ncnc2c1ncn2[C@@H]1O[C@H](CO)[C@@H](O)[C@H]1O [Adenosine]
9 | 135.79 | O=c1nc[nH]c2nc[nH]c12 [Hypoxanthine]
10 | 159.25 | O=c1nc[nH]c2c1ncn2[C@@H]1O[C@H](CO)[C@@H](O)[C@H]1O [Inosine]
11 | 133.45 | NC(=O)CC[C@H](N)C(=O)O [Glutamine]

Same assay, conditions: [M+Na]+; instrument: DT; stepped-field

Row | collision cross section (N2) [Å²] | SMILES
12 | 177.25 | Nc1nc(=O)c2ncn([C@@H]3O[C@H](CO)[C@@H](O)[C@H]3O)c2[nH]1 [Guanosine]
13 | 152.65 | O=c1[nH]c(=O)c2[nH]cnc2[nH]1 [Xanthine]
14 | 166 | O=c1ccn([C@@H]2O[C@H](CO)[C@@H](O)[C@H]2O)c(=O)[nH]1 [Uridine]
15 | 170.07 | Nc1ncnc2c1ncn2[C@@H]1O[C@H](CO)[C@@H](O)[C@H]1O [Adenosine]
16 | 138.88 | O=c1nc[nH]c2nc[nH]c12 [Hypoxanthine]
17 | 175.37 | O=c1nc[nH]c2c1ncn2[C@@H]1O[C@H](CO)[C@@H](O)[C@H]1O [Inosine]
18 | 138.11 | NC(=O)CC[C@H](N)C(=O)O [Glutamine]

Details: [M+H]+; instrument: TW; calibrated with phosphatidylcholines (ESI+) and phosphatidylethanolamines (ESI-), doubly charged cardiolipins calibrated with poly-DL-…

Row | collision cross section (N2) [Å²] | SMILES
19 | 268.71 | CCCCCC/C=C\CCCCCCCC(=O)OCC(COP(=O)(O)OCCN)OC(=O)CCCCCCCC1CC1CCCCCC (configuration not stated) [PE(33:2)]
20 | 275.45 | CCCCCCCC/C=C\CCCCCCCC(=O)OC(COC(=O)CCCCCCCCCCCCCCC)COP(=O)(O)OCCN (configuration not stated) [PE(34:1)]

Row | SMILES | collision cross section (N2) [Å²]
21 | CCCCCCCC/C=C/CCCCCCCC(=O)OC[C@@H](O)COP(=O)([O-])OCC[NH3+] [LPE(18:1/0:0)] | 214.35

Same assay, conditions: [M+Na]+; instrument: TW; calibrated with phosphatidylcholines (ESI+) and phosphatidylethanolamines (ESI-), doubly charged cardiolipins calibrated with poly-DL-…

Row | collision cross section (N2) [Å²] | SMILES
22 | 283.87 | CCCCCCCC/C=C\CCCCCCCC(=O)OCC(COP(=O)(O)OCC(O)CO)OC(=O)CCCCCCC/C=C\CCCCCCCC (configuration not stated) [PG(36:2)]
23 | 275.67 | CCCCCC/C=C\CCCCCCCC(=O)OCC(COP(=O)(O)OCC(O)CO)OC(=O)CCCCCCCC1CC1CCCCCC (configuration not stated) [PG(33:2)]
24 | 328.3 | CCCCCCCCCCCCCCCC(=O)NCCOP(=O)(O)OC[C@@H](COC(=O)CCCCCCCCCCCCCCC)OC(=O)CCCCCCCC1CC1CCCCCC (some centres not stated) [AcylPE(49:1)]

Row | SMILES | collision cross section (N2) [Å²]
25 | CCCCCCCC/C=C/CCCCCCCC(=O)OC[C@@H](O)COP(=O)([O-])OCC[NH3+] [LPE(18:1/0:0)] | 219.17

Same assay, conditions: [M-H]-; instrument: TW; calibrated with phosphatidylcholines (ESI+) and phosphatidylethanolamines (ESI-), doubly charged cardiolipins calibrated with poly-DL-…

Row | collision cross section (N2) [Å²] | SMILES
26 | 257.69 | CCCCCC/C=C\CCCCCCCC(=O)OCC(COP(=O)(O)OCCN)OC(=O)CCCCCCCC1CC1CCCCCC (configuration not stated) [PE(33:2)]
27 | 245.76 | CCCCCCCCCCCCCCCC(=O)OCC(COP(=O)(O)O)OC(=O)CCCCCCCC1CC1CCCC (configuration not stated) [PA(31:1)]
28 | 275.05 | CCCCCCCC/C=C\CCCCCCCC(=O)OCC(COP(=O)(O)OCC(O)CO)OC(=O)CCCCCCC/C=C\CCCCCCCC (configuration not stated) [PG(36:2)]
29 | 263.99 | CCCCCCCC/C=C\CCCCCCCC(=O)OC(COC(=O)CCCCCCCCCCCCCCC)COP(=O)(O)OCCN (configuration not stated) [PE(34:1)]
30 | 264.54 | CCCCCC/C=C\CCCCCCCC(=O)OCC(COP(=O)(O)OCC(O)CO)OC(=O)CCCCCCCC1CC1CCCCCC (configuration not stated) [PG(33:2)]
31 | 320.39 | CCCCCCCCCCCCCCCC(=O)NCCOP(=O)(O)OC[C@@H](COC(=O)CCCCCCCCCCCCCCC)OC(=O)CCCCCCCC1CC1CCCCCC (some centres not stated) [AcylPE(49:1)]
32 | 217.26 | CCCCCCCC/C=C/CCCCCCCC(=O)O[C@H](CO)COP(=O)(O)OCC(O)CO (some centres not stated) [LPG(18:1)]
33 | 213.68 | CCCCCCC1CC1CCCCCCCC(=O)O[C@H](CO)COP(=O)(O)OCC(O)CO (some centres not stated) [LPG(17:1)]

Row | SMILES | collision cross section (N2) [Å²]
34 | CCCCCCCC/C=C/CCCCCCCC(=O)OC[C@@H](O)COP(=O)([O-])OCC[NH3+] [LPE(18:1/0:0)] | 211.1

Details: [M+H]+; instrument: DT; single field, calibrated with Agilent tune mix (Agilent)

Row | collision cross section (N2) [Å²] | SMILES
35 | 119.7 | CN(C)CC(=O)O [Dimethylglycine]
36 | 130.3 | O=c1[nH]c(=O)c2[nH]cnc2[nH]1 [Xanthine]
37 | 125.1 | Nc1ncnc2nc[nH]c12 [Adenine]
38 | 128.1 | O=C(O)[C@@H]1C[C@@H](O)CN1 [Hydroxyproline]
39 | 143 | CC(=O)O[C@H](CC(=O)[O-])C[N+](C)(C)C [Acetylcarnitine]
40 | 155.7 | Nc1ncnc2c1ncn2[C@@H]1O[C@H](CO)[C@@H](O)[C@H]1O [Adenosine]
41 | 133.1 | Cn1cnc(C[C@H](N)C(=O)O)c1 [1-Methylhistidine]
42 | 127.1 | O=c1nc[nH]c2nc[nH]c12 [Hypoxanthine]

Same assay, conditions: [M+Na]+; instrument: DT; single field, calibrated with Agilent tune mix (Agilent)

Row | collision cross section (N2) [Å²] | SMILES
43 | 174.6 | Nc1nc(=O)c2ncn([C@@H]3O[C@H](CO)[C@@H](O)[C@H]3O)c2[nH]1 [Guanosine]
44 | 160.1 | O=c1ccn([C@@H]2O[C@H](CO)[C@@H](O)[C@H]2O)c(=O)[nH]1 [Uridine]
45 | 159.5 | Nc1ccn([C@@H]2O[C@H](CO)[C@@H](O)[C@H]2O)c(=O)n1 [Cytidine]
46 | 170.7 | O=c1nc[nH]c2c1ncn2[C@@H]1O[C@H](CO)[C@@H](O)[C@H]1O [Inosine]

Same assay, conditions: [M-H]-; instrument: DT; single field, calibrated with Agilent tune mix (Agilent)

Row | collision cross section (N2) [Å²] | SMILES
47 | 139.64 | Cn1cnc(C[C@H](N)C(=O)O)c1 [1-Methylhistidine]
